Reference: publication PMC5992921, “The effect of different divalent cations on the kinetics and fidelity of Bacillus stearothermophilus DNA polymerase” (AIMS biophysics, 2018)

Molecular target: T1, BST pol (Bacillus stearothermophilus DNA polymerase) (Geobacillus stearothermophilus, UniProt P52026)
T1 construct: gene polA
T1 sequence (P52026 297-876 limits assumed): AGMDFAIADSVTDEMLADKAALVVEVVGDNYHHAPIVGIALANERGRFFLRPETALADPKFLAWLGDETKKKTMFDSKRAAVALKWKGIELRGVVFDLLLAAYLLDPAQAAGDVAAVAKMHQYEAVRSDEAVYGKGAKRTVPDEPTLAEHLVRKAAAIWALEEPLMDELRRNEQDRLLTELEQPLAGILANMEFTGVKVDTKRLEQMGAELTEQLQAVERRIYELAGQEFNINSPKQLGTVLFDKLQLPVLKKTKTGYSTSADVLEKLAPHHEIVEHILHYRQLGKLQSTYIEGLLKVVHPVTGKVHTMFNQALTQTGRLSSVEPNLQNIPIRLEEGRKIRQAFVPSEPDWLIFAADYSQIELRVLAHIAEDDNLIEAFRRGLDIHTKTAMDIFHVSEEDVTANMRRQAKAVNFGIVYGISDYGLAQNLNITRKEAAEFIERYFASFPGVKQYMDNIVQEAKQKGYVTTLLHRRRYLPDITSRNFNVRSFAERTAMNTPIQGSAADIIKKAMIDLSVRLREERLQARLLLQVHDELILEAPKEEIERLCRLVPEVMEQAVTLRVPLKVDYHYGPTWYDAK
Assay: equilibrium 2-aminopurine fluorescence quenching titration
Format: binding
Settings: read-out: Kd,g

Kd: 1460 ± 130 µM
Structure (SMILES): Nc1ccn([C@H]2C[C@H](O)[C@@H](COP(=O)(O)OP(=O)(O)OP(=O)(O)O)O2)c(=O)n1 [dCTP]
